# Biological target: Xanthine dehydrogenase/oxidase (Homo sapiens, UniProt P47989)
# Experiment: Xanthine Oxidase Inhibition Assay
# Procedure: Inhibition assay of the xanthine oxidase reaction by various purine based inhibitors was measured in terms of the decrease in uric acid formation at […].
# Sequence of Xanthine dehydrogenase/oxidase (P47989 whole entry): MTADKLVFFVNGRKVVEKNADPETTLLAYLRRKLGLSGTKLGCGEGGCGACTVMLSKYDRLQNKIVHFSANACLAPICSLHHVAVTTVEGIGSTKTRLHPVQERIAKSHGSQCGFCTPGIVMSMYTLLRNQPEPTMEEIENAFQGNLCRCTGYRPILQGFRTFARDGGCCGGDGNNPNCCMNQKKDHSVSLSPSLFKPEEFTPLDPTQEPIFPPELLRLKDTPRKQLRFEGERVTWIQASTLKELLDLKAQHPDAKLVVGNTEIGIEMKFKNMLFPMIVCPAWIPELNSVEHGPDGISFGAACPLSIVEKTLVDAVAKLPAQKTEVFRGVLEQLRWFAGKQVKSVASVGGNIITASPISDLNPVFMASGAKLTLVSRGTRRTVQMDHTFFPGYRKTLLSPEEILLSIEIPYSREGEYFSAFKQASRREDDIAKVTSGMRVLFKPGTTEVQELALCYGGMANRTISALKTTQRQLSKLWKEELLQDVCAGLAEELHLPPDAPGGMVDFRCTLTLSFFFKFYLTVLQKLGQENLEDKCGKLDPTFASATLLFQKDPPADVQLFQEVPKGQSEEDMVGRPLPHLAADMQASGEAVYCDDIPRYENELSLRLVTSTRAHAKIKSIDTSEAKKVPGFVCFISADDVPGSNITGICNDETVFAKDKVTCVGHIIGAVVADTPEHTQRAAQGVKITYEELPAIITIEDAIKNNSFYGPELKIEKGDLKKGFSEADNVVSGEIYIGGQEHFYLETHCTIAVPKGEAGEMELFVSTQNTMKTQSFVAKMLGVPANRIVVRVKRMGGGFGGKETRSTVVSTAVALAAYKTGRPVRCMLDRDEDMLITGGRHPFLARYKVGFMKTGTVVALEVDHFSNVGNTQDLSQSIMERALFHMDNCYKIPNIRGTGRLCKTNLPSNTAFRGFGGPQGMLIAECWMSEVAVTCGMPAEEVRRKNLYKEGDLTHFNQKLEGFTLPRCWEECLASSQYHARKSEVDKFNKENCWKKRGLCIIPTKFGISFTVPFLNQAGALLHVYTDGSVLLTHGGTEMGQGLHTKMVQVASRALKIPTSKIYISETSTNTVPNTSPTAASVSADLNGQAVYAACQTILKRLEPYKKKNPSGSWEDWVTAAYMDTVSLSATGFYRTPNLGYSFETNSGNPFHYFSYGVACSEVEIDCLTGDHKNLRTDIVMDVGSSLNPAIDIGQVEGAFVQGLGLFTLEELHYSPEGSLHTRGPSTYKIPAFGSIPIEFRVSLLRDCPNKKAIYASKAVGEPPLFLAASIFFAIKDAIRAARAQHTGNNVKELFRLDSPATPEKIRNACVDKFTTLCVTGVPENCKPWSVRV
row,SMILES,IC50
1,"O=c1[nH]c(=O)c2[nH]c(Br)nc2[nH]1 [8-Bromoxanthine, 3]",400 µM
2,"O=C(Nc1ncnc2nc[nH]c12)c1ccccc1 [6-(N-benzoylamino)purine, 2]",0.45 µM
3,Nc1ncnc2nc[nH]c12,75.6 µM

# — BindingDB's records for doi:10.1080/14756360500112326 (National Institute of Pharmaceutical Education and Research, 2005)
